In one assay the test system is Trypanosoma cruzi. Description: Antitrypanosomal activity against epimastigotes of Trypanosoma cruzi Y after 96 hrs by Neubauer haemocytometer. In kind it is functional, organism-based.
Assay [1] in a line: Selectivity index, ratio of CC50 for mouse J774.G8 cells to IC50 for epimastigotes of Trypanosoma cruzi Y. In kind it is functional.
A short description of assay [2]: Selectivity index, ratio of CC50 for monkey LLC-MK2 cells to IC50 for epimastigotes of Trypanosoma cruzi Y. In kind it is functional.

SMILES strings stand for the structures. Some results are limits rather than exact numbers.

On to `COC(=O)[C@@H]1Cc2c([nH]c3ccccc23)[C@@H](c2ccc([N+](=O)[O-])cc2)N1` (relative stereo), for which the IC50 in the assay on Trypanosoma cruzi was greater than 100 µM.
In turn, `COC(=O)[C@@H]1Cc2c([nH]c3ccccc23)[C@H](c2cccc([N+](=O)[O-])c2)N1` (relative stereo) displayed an IC50 in the assay on Trypanosoma cruzi of 93.5 µM.
The same measure, in the same setting: next, `COC(=O)[C@@H]1Cc2c([nH]c3ccccc23)[C@H](c2ccc([N+](=O)[O-])cc2)N1` (relative stereo): 42.7 µM.
Take `COC(=O)[C@@H]1Cc2c([nH]c3ccccc23)[C@@H](c2cccc([N+](=O)[O-])c2)N1` (relative stereo): the “Selectivity Index” value in assay [1] came to 35.7; in assay [2], 25.6. The compound also gave an IC50 in the assay on Trypanosoma cruzi of 22.2 µM.

What is called IC50 is the concentration needed to halve the response being measured.

For the origin of these results see ChEMBL document CHEMBL1137678, “Comparative study of the trypanocidal activity of the methyl 1-nitrophenyl-1,2,3,4-9H-tetrahydro-beta-carboline-3-carboxylate derivatives and benznidazole using theoretical calculations and cyclic voltammetry” (Eur J Med Chem, 2009).
